Experimental data reported in patent publication US20240190838A1, “LZK-TARGETING DEGRADERS AND METHODS OF USE” (The U.S.A., as represented by the Secretary, Department of …, priority 2020, published 2024).
≈ marks a conversion by molar mass, not a printed value. Like-named read-outs stand apart in the source and are kept apart here. Where a SMILES comes first, the peptide text is derived from it. The star is where a group is joined. Cbz = O=C(OCc1ccccc1)*

Columns and labels:
[1] = Parallel artificial membrane permeability assay (PAMPA); format: in vitro ADME
LZK [2] = molecular target: T1, LZK (Homo sapiens, UniProt O43283); assay: LZK degradation (doxycycline-induced LZK expression, immunoblot) in CAL33 cells; format: cell-based; set-up: V5 (named only in the vector); expressed in transfected cells; host or cells: CAL33 HNSCC cells, lentiviral T-REx system, induced with doxycycline; conditions: for LZK degradation / dox-induced LZK expression: CAL33, doxycycline 48 hours, LZK PROTAC 24 hours, 0-10 μM; for dox-induced LZK expression at high concentrations: 24 hours
T1 sequence (O43283 1-966): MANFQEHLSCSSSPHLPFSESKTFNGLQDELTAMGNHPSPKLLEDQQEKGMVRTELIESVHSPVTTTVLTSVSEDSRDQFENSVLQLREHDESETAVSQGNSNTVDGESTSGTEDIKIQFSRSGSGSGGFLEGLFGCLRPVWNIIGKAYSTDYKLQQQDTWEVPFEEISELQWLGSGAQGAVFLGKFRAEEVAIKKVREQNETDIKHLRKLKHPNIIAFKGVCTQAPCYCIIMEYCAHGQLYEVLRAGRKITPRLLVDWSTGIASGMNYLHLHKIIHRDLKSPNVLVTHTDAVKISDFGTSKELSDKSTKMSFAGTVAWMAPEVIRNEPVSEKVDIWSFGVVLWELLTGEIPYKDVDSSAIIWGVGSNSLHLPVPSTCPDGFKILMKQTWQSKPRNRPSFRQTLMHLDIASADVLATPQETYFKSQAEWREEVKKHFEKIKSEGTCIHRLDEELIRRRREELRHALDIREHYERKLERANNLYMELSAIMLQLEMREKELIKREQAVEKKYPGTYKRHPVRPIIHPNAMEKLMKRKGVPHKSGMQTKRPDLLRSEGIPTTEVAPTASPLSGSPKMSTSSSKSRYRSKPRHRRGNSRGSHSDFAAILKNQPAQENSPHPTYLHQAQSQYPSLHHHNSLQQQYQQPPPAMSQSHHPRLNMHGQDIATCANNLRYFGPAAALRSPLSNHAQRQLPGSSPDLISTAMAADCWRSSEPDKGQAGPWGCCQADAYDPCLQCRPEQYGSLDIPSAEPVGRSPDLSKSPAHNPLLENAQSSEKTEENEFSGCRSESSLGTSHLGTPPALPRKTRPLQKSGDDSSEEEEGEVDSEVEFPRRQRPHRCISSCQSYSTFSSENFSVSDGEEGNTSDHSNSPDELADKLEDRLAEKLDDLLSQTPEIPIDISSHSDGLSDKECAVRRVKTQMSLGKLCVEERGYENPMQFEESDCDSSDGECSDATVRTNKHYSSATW
Text: (§1) The ViraPower HiPerform T-REx Gateway Expression System (Invitrogen) was used to generate cells with tetracycline-inducible expression of LZK. In brief, wild-type (WT) or drug-resistant mutant (Q240S) LZK (cloned into pLenti6.3/TO/V5-DEST vector) and pLenti3.3/TR (for tetracycline repressor expression) were transfected into 293FT cells using Lipofectamine 2000 to generate lentiviral stock. Cell lines were generated by antibiotic selection (blasticidin [Gibco] and geneticin [Gibco]). Doxycycline (Sigma-Aldrich) was used at 1 μg/mL to induce LZK expression.
(§2) Generally, cells were plated in six-well or 35-mm plates for 24 hours, after which doxycycline was added or treatment with specific inhibitor was administered using […] for 48 hours. After appropriate treatment time, cells were washed with ice-cold phosphate-buffered saline without Ca and Mg (Quality Biological) and then lysed on ice with RIPA buffer (50 mM NaCl, 1.0% o IGEPAL® CA-630, 0.5% o sodium deoxycholate, 0.10% SDS, 50 mM Tris, pH 8.0) (Sigma-Aldrich) supplemented with protease inhibitor tablet (Sigma-Aldrich) and phosphatase inhibitor cocktails 2 and 3 (Sigma-Aldrich) followed by centrifugation at 15,000 rpm for 10 minutes at 4° C. Protein concentrations were determined from the cell lysate by using 660 nm Protein Assay Reagent (Pierce). Cell extracts were denatured, subjected to SDS-PAGE, transferred to PVDF membranes (Bio-Rad) and blocked for 2 hours using 5 bovine serum albumin (BSA) in phosphate-buffered saline and 0.10 Tween® 20 (PBS-T). The membranes were incubated with the specific antibodies overnight in […] at 4° C. followed by a 1 hour incubation with the appropriate horseradish peroxidase-conjugated secondary antibodies and signal was detected by chemiluminescence (Thermo Fisher).

LZK [3] = molecular target: T1, LZK; assay: LZK inhibition in cells monitored by downstream JNK phosphorylation (dox-induced LZK); format: cell-based; set-up: V5 (named only in the vector); expressed in transfected cells; host or cells: CAL33 HNSCC cells, lentiviral T-REx system, induced with doxycycline
Text: as §1, §2
A PathScan® Phospho-SAPK/JNK (Thr183/Tyr185) Sandwich ELISA Assay (Cell Signaling Technology) was used for ELISA assays following the manufacturer's protocol. In general, 500,000 cells were plated and treated with doxycycline the following day where appropriate and incubated at 37° C. for 48 hours. Cells were treated with the drug compound or control in 5% FBS media for 1 hour. After appropriate treatment time, cells were lysed on ice with 1x Cell Lysis Buffer (Cell Signaling Technology) supplemented with phosphatase and protease inhibitors (Sigma). Each diluted cell lysate was added to Phospho-SAPK/JNK (Thr183/Tyr185)Rabbit mAb Coated microwells in triplicate and incubated overnight at 4° C. Samples were treated with the following antibodies and incubated at 37° C. for 1 hour and 30 minutes, respectively: Detection Antibody and HRP-Linked secondary antibody. Samples were washed between treatments using 1× Wash Buffer according to the manufacturer's protocol. TMB substrate was added to each well and incubated at 37° C. for 10 minutes. Following this, STOPsolution was added to each well and absorbance was measured at 450 nm using iMark™ Microplate Absorbance Reader (Bio-Rad). Graphs display relative phospho-JNK levels.

Kinetic solubility assay = format: physicochemical; conditions: kinetic from dmso stock
[4] = Rat liver microsomal (RLM) stability assay; format: in vitro ADME; conditions: rat liver microsomes; read-out: RLM Stability (t1/2)
c-MYC = c-MYC levels in CAL33 and BICR56 cells depleted of LZK; format: cell-based; conditions: 10 μM for six hours; LZK depleted 48 hours
Description: CAL33 and BICR56 inducible knockdown cells were generated by SIRION Biotech. MSK921 was generated in-house using lentiviral particles provided by SIRION (generated by transfection of 293TN cells with expression vectors and lentiviral packaging plasmids). Transduction occurred at MOI 5 with 8 μg/mL polybrene. After 24 hours, medium was replaced with fresh medium containing puromycin (Invitrogen) to select for cells that had been effectively transduced. shRNA sequences were […] (sh1; SEQ ID NO: 19) and […] (sh2; SEQ ID NO: 20). The lentiviral expression plasmid was pCLVi(3G)-MCS-Puro, which expresses a doxycycline-responsive transactivator and the shRNA from the same vector. Expression of the transactivator is constitutive, while shRNA expression depends on a doxycycline-inducible promoter. […]
Generally, cells were plated in six-well or 35-mm plates for 24 hours, after which doxycycline was added or treatment with specific inhibitor was administered using 50 FBS media for 48 hours. […] Protein concentrations were determined from the cell lysate by using 660 nm Protein Assay Reagent (Pierce). […] The membranes were incubated with the specific antibodies overnight in […] at 4° C. followed by a 1 hour incubation with the appropriate horseradish peroxidase-conjugated secondary antibodies and signal was detected by chemiluminescence (Thermo Fisher).

## C[C@@H](C(=O)N[C@H](C(=O)N1C[C@@H](NC(=O)CCCCCCC(=O)N2CCC(c3cc(Nc4cc(C#N)ccn4)nc(N4CCC(F)(F)C4)c3)CC2)C[C@H]1C(=O)N[C@@H]1CCCc2ccccc21)C1CCCCC1)N(C)C(=O)OC(C)(C)C [Compound 30]
[1]; Table 7
  Ratio of mean permeability (×10^4 cm/s) related to low permeability control (atenolol): 0.05
[1]; Table 7, read-out: Mean permeability
  Papp: 0.0001 ×10⁻⁶ cm/s
LZK [2]
  LZK degradation / dox-induced LZK expression: did not degrade LZK

## O=C(CCCCCCC(=O)N1CCC(c2cc(Nc3cc(C(F)(F)F)ccn3)nc(N3CCC(F)(F)C3)c2)CC1)NCCCCNC(=O)CNc1cccc2c1C(=O)N(C1CCC(=O)NC1=O)C2=O (stereo not shown) [Compound 5]
LZK [3]; CAL33 cells induced with doxycycline, 0-10 μM
  JNK signaling inhibition by targeted degraders: inhibited LZK
LZK [2]
  LZK degradation / dox-induced LZK expression: ineffective at degrading LZK
  dox-induced LZK expression at high concentrations: slightly decreased dox-induced LZK expression

## FC1(F)CCN(c2cc(C3CCNCC3)cc(Nc3cc(C(F)(F)F)ccn3)n2)C1 [LZK inhibitor 1]
LZK [3]; dox-inducible LZK in CAL33 cells
  LZK inhibition in cells, measured by inhibition of downstream JNK pathway activation: poor LZK inhibitor in cells

## Cc1ncsc1-c1ccc([C@H](C)NC(=O)[C@@H]2C[C@@H](O)CN2C(=O)[C@@H](NC(=O)CCCCCCC(=O)N2CCC(c3cc(Nc4cc(C(F)(F)F)ccn4)nc(N4CCC(F)(F)C4)c3)CC2)C(C)(C)C)cc1 [Compound 4]
LZK [2]
  LZK degradation / dox-induced LZK expression: ineffective at degrading LZK
  dox-induced LZK expression at high concentrations: slightly decreased dox-induced LZK expression

## Cc1ncsc1-c1ccc([C@H](C)NC(=O)[C@@H]2C[C@@H](O)CN2C(=O)[C@@H](NC(=O)c2cncc(C(=O)N3CCC(c4cc(Nc5cc(C#N)ccn5)nc(N5CCC(F)(F)C5)c4)CC3)c2)C(C)(C)C)cc1 [Compound 7]
Kinetic solubility assay
  solubility: 26 µg/mL (≈ 27.1 µM)
[1]; pH 7.4
  Papp: < 1 ×10⁻⁶ cm/s
[4]
  half-life: > 30 min

## CC(C)C[C@@H](C=O)NC(=O)[C@H](CC(C)C)NC(=O)[C@H](CC(C)C)NC(=O)OCc1ccccc1 [MG132] (Cbz-Leu-Leu-Leu-aldehyde)
c-MYC
  c-MYC levels in LZK-depleted cells: rescued decreases in the c-MYC levels
